In PMC7198601, “Side chain effect in the modulation of αvβ3/α5β1 integrin activity via clickable isoxazoline-RGD-mimetics: development of molecular delivery systems” (Scientific Reports, 2020):
Values belong to the compound of their own block, whether it stands above or below them.

Legend:
[1] = test system: K562 cells; assay: Confocal microscopy of FITC-conjugate internalization in K562 cells; assay type: cell-based, human
Description: (§1) Figure 5 Confocal microscopy images of HEK293 or HEK293 + α5, HEK293 + αvβ3 and K562 cells treated with compound 31 (Cpd 31). Cells were exposed to compound 31 (0.1–1 μM) or its vehicle for 60 minutes at 4 °C and thereafter cells were moved to 37 °C for 15 minutes to promote integrin internalization and fixed as described in Methods. a) Compound 31, conjugated with FITC was able to enter the cells in α5 integrin-dependent manner: it was internalized in HEK293 + α5 but not in HEK293 cells. Right Panels: HEK293 cells not expressing α5 integrin subunit. Left Panels: HEK293 + α5. b) Concentration-dependent internalization of compound 31 was observed also in K562 cancer cells, endogenously expressing α5β1 integrin. […] In the left column of each panel green (FITC) fluorescence was shown, whereas in right one green and blue (DAPI) signals were merged. Nuclei were counterstained with DAPI. Scale bar: 30 µm. d) Compound 31 internalization was evaluated according to green fluorescence intensity in the cells and is reported in the graph. […]
(§2) Specimens were embedded in Mowiol and analyzed using a Nikon C1s confocal laser-scanning microscope, equipped with a Nikon PlanApo 60×, 1.4-NA oil immersion lens. […]
(§3) For internalization analysis of ligand 31, the mean fluorescence intensity was related to the background; the relative fluorescence intensity is reported in the graph in Fig. 5.

[2] = test system: α5β1 integrin-mediated phosphorylation of ERK1/2; assay: α5β1 integrin-mediated ERK1/2 phosphorylation in K562 cells (Western blot); assay type: cell-based, human
Description: The mechanism by which components of extracellular matrix generate intracellular signalling through integrins requires indeed an increased phosphorylation of cytoplasmatic second messengers. Phosphorylation of ERK1/2 plays a central role in fibronectin-mediated survival signalling through integrins: in fact, cell adhesion activates ERK1/2 by binding of α5β1 integrins at the cell surface to extracellular matrix proteins such as fibronectin. The experiment was performed by serum-starving K562 cells in RPMI-1640 containing 1% FBS for 16 h; thereafter, they were preincubated with compound 17b, 24 (10^−7–10^−9 M) or the vehicle for 60 minutes and then plated for 60 minutes on fibronectin.
Figure 2 (a) Cropped blots related to the effect of compounds 17b and 24 on α5β1 integrin-mediated phosphorylation of ERK1/2 in K562 cells. Cells were serum-starved in RPMI-1640 containing 1% FBS for 16 h; then cells were preincubated with different concentrations of the antagonist 17b (10^−7–10^−9 M) or its vehicle for 1 h in suspension and then were allowed to adhere for 1 h on fibronectin (FN). […] Thereafter cells were lysed and lysates were analysed in Western blot using an antibody directed against phosphorylated ERK1/2 (pERK1/2) or total ERK1/2 (totERK1/2). […]
K562 cells were incubated in RPMI-1640 with 1% FBS for 16 h. […] Digital images were acquired and analyzed following previously reported methods.

[3] = molecular target: T1, α5β1 integrin (Homo sapiens, UniProt P05556+P08648); assay: α5β1 integrin internalization by confocal microscopy in HEK293 + α5-EGFP cells; assay type: cell-based
Excerpt: Integrin trafficking is an important mechanism employed by cells to regulate integrin–extracellular matrix interactions, and thus cellular signalling, during processes such as cell migration and invasion. α5β1 integrin is internalized, trafficked to recycling endosomes and then recycled to the plasma membrane[43],[44]. Membrane trafficking pathways influence α5β1’s ability to promote invasion and metastasis[45],[46]. […]
HEK293 cells (not expressing α5 but endogenously expressing β1 integrin[47],[48] were plated in 6 well plates and at 50–60% confluence were transiently transfected with α5-EGFP plasmid using Lipofectamine2000 transfection reagent (LifeTechnologies). After 48 h from transfection, HEK293 + α5-EGFP cells were assessed to verify integrins expression by flow cytometry (data not shown). α5-EGFP integrin plasmid was a kind gift from Michael Davidson (Addgene plasmid #56423). HEK293 + α5-EGFP cells were treated at 4 °C with fibronectin (10 µg/ml) or the agonist 24 (1 µM) in MEM for 1 hour. Cells exposed to the antagonist 17b (1 µM), before the addition of fibronectin, were pre-incubated with the compound for 20 minutes at 4 °C. […]
as §2

[4] = molecular target: αvβ3 integrin (Homo sapiens, UniProt P05106+P06756); assay: Cell adhesion assay: SK-MEL-24 cells to immobilized fibronectin (αvβ3 integrin-mediated)
Description: (§8) The ability of the synthesized racemic ligands to inhibit the adhesion of K562 cells (human erythroleukemic cells, expressing α5β1 integrin) or SK-MEL-24 cells (human malignant melanoma cells, expressing αvβ3 integrin) to immobilized fibronectin was evaluated[29]. […] In these experiments, the cells were seeded onto plates coated with fibronectin and allowed to adhere before quantitation of the number of adherent cells, in presence of increasing concentrations of the compounds.
(§9) SK-MEL-24 (American Tissue Culture Collection, ATCC, Rockville, MD) were routinely grown in minimum essential medium (MEM, Cambrex, Walkersville, MD) supplemented with 10% fetal bovine serum (FBS), nonessential amino acids, and sodium pyruvate. K-562 (ATCC, Rockville, MD) were maintained as a stationary suspension culture in RPMI-1640 and L-glutamine with 10% FBS (Invitrogen (Carlsbad, CA). Cells were kept at 37 °C in a 5% CO2 humidified atmosphere. Forty hours before experiments, K-562 were treated with 25 ng/mL PMA (Sigma-Aldrich SRL, Milan, Italy) to induce differentiation and to increase expression of cell surface antigens[50].
(§10) Plates (96 wells) (Corning Costar, Celbio, Milan,Italy) were coated by passive adsorption with fibronectin (10 µg/mL) or poly-L-lysine (0.002%) (Sigma-Aldrich SRL) overnight at 4 °C. Cells were counted with a haemocytometer and pre-incubated with different concentrations of each compound or with the vehicle (methanol) for 30 min at room temperature to reach a ligand-receptor equilibrium. Stock solutions (10^–2 M) of the assayed compounds were prepared in phosphate-buffered saline (PBS). […] This product is a chromogenic substrate for β-N-acetylglucosaminidase that is transformed in 4-nitrophenol whose absorbance can be measured at 405 nm. As previously described[51], there is a linear correlation between absorbance and enzymatic activity. Therefore, it is possible to identify the number of adherent cells among treated wells, interpolating the absorbance values of unknowns in a calibration curve. The reaction was blocked by addition of 100 µL of a stopping solution [50 µM glycine and 5 µM EDTA (pH 10.4)], and the plates were read in an EnSpire Multimode Plate Reader (PerkinElmer, Waltham, MA, USA). Experiments were carried out in quadruplicate and repeated at least three times. Data analysis and IC50/EC50 values were calculated using Graph-Pad Prism 5.0 (GraphPad Software, San Diego, CA).

[5] = Stability in water at neutral, basic and acidic pH (LC-MS); assay type: physicochemical; conditions: for loss of product: water, after several hours
Description: (§4) LC-MS injections were performed after 30 min from the preparation of the samples and then after each 1.5 hours, following the experiments for 14 h (Fig. 4). […] As a consequence of the spontaneous aromatization of A, also an increasing amount of B was observed after a short period. The aromatised form B was tested to evaluate its effect on the activity of selected integrins but, as consequence of the absence of a crucial pharmacophore, it was not active. This behaviour doesn’t represent a big issue since strong basic conditions are quite unusual in physiological environment. In fact under stress conditions with a large excess of base, the decomposition of 17b to A occurred in few minutes.
(§5) Figure 4 Stability of 17b in neutral, basic, acidic and physiological conditions and its possible degradation pathway. Conditions: 17b (0.1 mmol) in 300 µl of solvent (water or bovine serum). 5 eq of LiOH·H2O or HCl 1 M were added.

[6] = Stability in bovine serum (LC-MS); assay type: in vitro ADME
Description: as §4, §5

[7] = molecular target: T1, α5β1 integrin; assay: Cell adhesion assay: K562 cells to immobilized fibronectin (α5β1 integrin-mediated)
Description: as §8, §9, §10

[8] = test system: selected integrins; assay: Effect of the aromatised degradation product on the activity of selected integrins
Description: as §4

[9] = test system: HEK293 + αvβ3 cells; assay: Confocal microscopy of FITC-conjugate internalization in HEK293 + αvβ3 cells; assay type: cell-based, human; conditions: HEK293 + αvβ3 cells not expressing α5β1, 0.1–1 μM
Description: as §1, §2, §3

[10] = test system: HEK293 cells; assay: Confocal microscopy of FITC-conjugate internalization in HEK293 cells not expressing α5; assay type: cell-based, human; conditions: HEK293 cells that do not express α5 integrin, 0.1–1 μM
Description: (§6) In order to visualize the localization of isoxazolines inside the cells and to explore the possibility to use them as shuttles for selective delivery of therapeutic payloads and diagnostics, compound 31 was synthesized conjugating 17b with FITC, as described above. […] In addition, the internalization of compound 31 was concentration-dependent: at a higher concentration (1 μM) it accumulated inside the cells in a greater extent.
(§7) Figure 5 Confocal microscopy images of HEK293 or HEK293 + α5, HEK293 + αvβ3 and K562 cells treated with compound 31 (Cpd 31). […] In the left column of each panel green (FITC) fluorescence was shown, whereas in right one green and blue (DAPI) signals were merged. […] Scale bar: 30 µm. d) Compound 31 internalization was evaluated according to green fluorescence intensity in the cells and is reported in the graph. […]
as §2, §3

[11] = test system: HEK293 + α5 cells; assay: Confocal microscopy of FITC-conjugate internalization in HEK293 + α5 cells; assay type: cell-based, human; conditions: 0.1–1 μM
Description: as §6, §7, §2, §3

[12] = K562 cell adhesion to fibronectin

T1 sequence (P08648 42-894 limits assumed): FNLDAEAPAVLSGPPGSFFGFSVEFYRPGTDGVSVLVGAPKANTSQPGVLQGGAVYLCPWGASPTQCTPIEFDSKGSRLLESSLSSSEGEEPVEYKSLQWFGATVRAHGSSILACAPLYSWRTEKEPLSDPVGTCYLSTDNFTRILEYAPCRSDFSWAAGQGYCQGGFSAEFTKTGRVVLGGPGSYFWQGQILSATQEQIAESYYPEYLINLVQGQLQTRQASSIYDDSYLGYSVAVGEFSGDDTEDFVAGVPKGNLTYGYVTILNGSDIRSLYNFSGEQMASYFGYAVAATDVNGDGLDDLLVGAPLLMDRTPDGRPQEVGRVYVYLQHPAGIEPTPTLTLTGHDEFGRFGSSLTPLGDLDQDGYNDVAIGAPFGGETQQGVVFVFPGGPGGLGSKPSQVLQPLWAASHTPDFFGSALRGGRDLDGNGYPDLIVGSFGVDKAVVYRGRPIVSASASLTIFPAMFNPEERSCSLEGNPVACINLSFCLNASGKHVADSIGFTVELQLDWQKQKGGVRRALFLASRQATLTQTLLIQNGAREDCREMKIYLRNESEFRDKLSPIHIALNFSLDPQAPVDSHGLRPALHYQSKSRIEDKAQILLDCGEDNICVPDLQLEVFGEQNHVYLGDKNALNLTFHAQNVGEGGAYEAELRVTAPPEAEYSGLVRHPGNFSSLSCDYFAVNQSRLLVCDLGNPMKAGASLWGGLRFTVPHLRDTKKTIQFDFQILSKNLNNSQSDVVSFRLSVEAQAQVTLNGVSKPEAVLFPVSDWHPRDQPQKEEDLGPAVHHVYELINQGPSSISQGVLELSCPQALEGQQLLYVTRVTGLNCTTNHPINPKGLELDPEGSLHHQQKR
T1 sequence (P08648 895-1049 partner limits assumed): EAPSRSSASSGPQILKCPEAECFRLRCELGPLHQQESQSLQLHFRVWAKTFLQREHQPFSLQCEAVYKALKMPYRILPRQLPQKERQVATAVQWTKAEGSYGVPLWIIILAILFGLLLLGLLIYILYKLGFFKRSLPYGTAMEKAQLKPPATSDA
T1 sequence (P05556 21-798): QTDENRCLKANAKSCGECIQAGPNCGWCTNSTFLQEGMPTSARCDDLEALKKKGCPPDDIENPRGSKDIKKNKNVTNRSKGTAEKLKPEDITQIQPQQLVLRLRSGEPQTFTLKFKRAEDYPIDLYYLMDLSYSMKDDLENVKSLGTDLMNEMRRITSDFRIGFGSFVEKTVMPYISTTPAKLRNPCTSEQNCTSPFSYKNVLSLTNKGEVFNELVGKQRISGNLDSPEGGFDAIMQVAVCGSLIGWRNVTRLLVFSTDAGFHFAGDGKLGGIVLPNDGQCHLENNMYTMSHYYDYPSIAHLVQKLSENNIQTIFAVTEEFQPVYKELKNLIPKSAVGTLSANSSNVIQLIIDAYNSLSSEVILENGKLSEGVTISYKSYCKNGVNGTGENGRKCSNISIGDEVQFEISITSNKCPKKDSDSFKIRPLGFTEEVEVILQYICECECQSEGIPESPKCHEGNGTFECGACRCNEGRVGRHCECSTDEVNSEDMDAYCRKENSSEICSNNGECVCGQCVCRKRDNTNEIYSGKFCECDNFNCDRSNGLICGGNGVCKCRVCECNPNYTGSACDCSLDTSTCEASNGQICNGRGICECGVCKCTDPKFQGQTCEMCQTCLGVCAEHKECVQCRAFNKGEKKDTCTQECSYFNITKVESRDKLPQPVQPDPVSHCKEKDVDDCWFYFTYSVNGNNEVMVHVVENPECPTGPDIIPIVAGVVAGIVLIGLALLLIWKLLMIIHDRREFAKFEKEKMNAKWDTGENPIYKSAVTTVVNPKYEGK
Sequence of αvβ3 integrin (P06756 31-889 limits assumed): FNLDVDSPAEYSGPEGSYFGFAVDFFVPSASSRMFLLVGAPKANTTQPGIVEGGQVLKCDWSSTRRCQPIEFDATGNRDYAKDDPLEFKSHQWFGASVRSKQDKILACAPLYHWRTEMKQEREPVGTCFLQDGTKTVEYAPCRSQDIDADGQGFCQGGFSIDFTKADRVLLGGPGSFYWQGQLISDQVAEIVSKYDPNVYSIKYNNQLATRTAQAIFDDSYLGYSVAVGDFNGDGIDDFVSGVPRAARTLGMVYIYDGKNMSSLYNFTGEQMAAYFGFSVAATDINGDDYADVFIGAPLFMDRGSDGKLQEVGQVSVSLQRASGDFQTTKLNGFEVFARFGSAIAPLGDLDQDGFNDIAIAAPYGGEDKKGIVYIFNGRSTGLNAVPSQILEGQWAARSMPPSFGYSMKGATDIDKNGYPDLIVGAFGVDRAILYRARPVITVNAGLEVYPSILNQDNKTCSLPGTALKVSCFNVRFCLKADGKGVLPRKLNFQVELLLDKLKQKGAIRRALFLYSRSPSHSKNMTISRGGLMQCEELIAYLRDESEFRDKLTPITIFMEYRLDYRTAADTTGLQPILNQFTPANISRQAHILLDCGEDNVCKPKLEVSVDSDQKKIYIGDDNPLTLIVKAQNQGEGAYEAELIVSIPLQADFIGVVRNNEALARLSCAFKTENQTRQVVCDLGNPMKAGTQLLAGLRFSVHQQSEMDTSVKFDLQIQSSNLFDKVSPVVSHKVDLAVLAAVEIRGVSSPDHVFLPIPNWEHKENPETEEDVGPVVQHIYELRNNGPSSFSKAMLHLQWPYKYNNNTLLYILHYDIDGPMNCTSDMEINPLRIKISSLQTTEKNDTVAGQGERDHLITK
Sequence of αvβ3 integrin (P06756 891-1048 partner limits assumed): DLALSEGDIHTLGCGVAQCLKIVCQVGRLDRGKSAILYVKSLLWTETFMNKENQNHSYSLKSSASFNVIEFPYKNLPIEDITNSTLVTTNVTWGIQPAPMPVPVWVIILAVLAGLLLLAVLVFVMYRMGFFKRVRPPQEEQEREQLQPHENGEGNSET
Sequence of αvβ3 integrin (P05106 27-788): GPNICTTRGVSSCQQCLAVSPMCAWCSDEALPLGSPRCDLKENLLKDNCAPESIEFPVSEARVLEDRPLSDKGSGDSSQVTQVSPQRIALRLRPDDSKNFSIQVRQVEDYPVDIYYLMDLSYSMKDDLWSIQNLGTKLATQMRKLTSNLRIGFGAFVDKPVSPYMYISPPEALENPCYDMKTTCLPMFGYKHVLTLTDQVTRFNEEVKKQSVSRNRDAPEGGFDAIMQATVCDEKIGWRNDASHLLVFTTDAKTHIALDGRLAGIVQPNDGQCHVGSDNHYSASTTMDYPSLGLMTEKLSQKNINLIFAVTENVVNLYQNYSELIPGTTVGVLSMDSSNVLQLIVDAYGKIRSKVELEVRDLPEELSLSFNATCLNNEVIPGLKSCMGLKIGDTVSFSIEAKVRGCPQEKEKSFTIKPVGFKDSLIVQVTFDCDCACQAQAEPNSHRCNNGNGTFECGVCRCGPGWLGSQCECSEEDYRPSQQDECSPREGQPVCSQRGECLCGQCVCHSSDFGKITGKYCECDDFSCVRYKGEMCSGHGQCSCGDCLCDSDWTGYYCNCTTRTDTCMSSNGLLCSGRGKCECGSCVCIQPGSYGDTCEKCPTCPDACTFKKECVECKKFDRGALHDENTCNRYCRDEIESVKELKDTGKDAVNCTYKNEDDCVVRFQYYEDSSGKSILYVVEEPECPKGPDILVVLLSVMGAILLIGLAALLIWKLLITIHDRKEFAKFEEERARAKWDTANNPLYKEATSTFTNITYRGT

Compound: CC[C@@]1([C@@H]2O[C@@H]([C@H]3O[C@@](O)(CO)[C@H](C)C[C@@H]3C)C[C@@H]2C)CC[C@H]([C@]2(C)CC[C@]3(C[C@H](O)[C@@H](C)[C@@H]([C@@H](C)[C@@H](OC)[C@H](C)C(=O)O)O3)O2)O1 [monensin, reference compound]
- effect on compound 31 internalization ([1]; monensin 2 µM for 2 h): significantly inhibited

- effect on fibronectin-induced α5β1 integrin internalization ([3]; compound 1 µM pre-incubated before fibronectin 10 µg/mL): prevented integrin internalization
- IC50 [4]: > 1000 µM
- loss of product ([5]; acidic treatment (pH=3, HCl)): 5%
- loss of product ([5]; neutral conditions (pH=7)): 5%
- decomposition to A ([5]; stress conditions with a large excess of base): few minutes
- stability in bovine serum [6]: no significant degradation
- IC50 [7]: 0.0027 ± 0.0004 µM
- α5β1 behaviour (agonist/antagonist) [7, 12]: antagonist
Compound: CC1=C(C(=O)NCc2ccc(N)cc2)C(CCCc2cn(CCCNC(=O)OC(C)(C)C)nn2)N(C(=O)CC(=O)O)O1 (centres unmarked) [Compound 17b]
- fibronectin-induced ERK1/2 phosphorylation levels ([2]; K562 cells preincubated with compound 10^−7–10^−9 M, then plated on fibronectin): significant concentration-dependent reduction

- α5β1 integrin internalization by compound alone ([3]; compound 1 µM, no fibronectin): induced α5β1 internalization
- IC50 [4]: > 1000 µM
- EC50 [7]: 6.59 ± 0.16 µM
- α5β1 behaviour (agonist/antagonist) [7, 12]: agonist
Compound: CC1=C(C(=O)NCc2ccc(N)cc2)C(CCCc2cn(CCCNC(=O)CCC(=O)OC(C)(C)C)nn2)N(C(=O)CC(=O)O)O1 (centres unmarked) [Compound 24]
- ERK1/2-phosphorylation ([2]; K562 cells not incubated with fibronectin, compound 10^−7–10^−9 M): significant concentration dependent increase

Compound: Cc1onc(CCCc2cn(CCCNC(=O)OC(C)(C)C)nn2)c1C(=O)NCc1ccc(N)cc1 [B]
- effect on the activity of selected integrins [8]: not active

- IC50 [7]: 0.13 ± 0.01 µM
- α5β1 behaviour (agonist/antagonist) [7, 12]: antagonist
- α5β1 IC50/EC50 (IC50 for antagonists) ([7]; K562 cell adhesion to fibronectin, antagonists, also >1000 cells with behaviour not given, mean ± SD): 0.13 ± 0.01 µM
Compound: CC1=C(C(=O)NCc2ccc(N)cc2)C(CCCc2cn(CCCNC(=S)Nc3ccc(-c4c5ccc(=O)cc-5oc5cc(O)ccc45)c(C(=O)O)c3)nn2)N(C(=O)CC(=O)O)O1 (centres unmarked) [Compound 31]
- internalization [9]: not able to be internalized
- internalization [10]: not able to enter
- intracellular localization / internalization [11]: localized in the cell cytoplasm
- internalization ([1]; 0.1–1 μM): internalized in K562 cells in a concentration-dependent way
